The values that follow come from ChEMBL document CHEMBL4011609, “Discovery of novel BRD4 inhibitors by high-throughput screening, crystallography, and cell-based assays” (Bioorg Med Chem Lett, 2017).

pIC50: −log10 of the molar value.

The inhibition is the percentage by which the read-out fell short of the control. The term pIC50 denotes −log10 of the IC50, conventionally taken in molar units.

For assay [1], the target named is T1, Bromodomain-containing protein 4 (Homo sapiens, UniProt O60885). Nature of the assay: Inhibition of human BRD4-BD1 (49 to 170 residues) expressed in Escherichia coli BL21(DE3) using N-C:SGRG-K(Ac)-GG-K(Ac)-GLG-K(Ac)-GGA-K(Ac)-RHRKVGG-K(biotin) as substrate preincubated for 15 mins followed by substrate addition measured after 5 mins by AlphaScreen assay relative to control. Details: concentration or dose not given beside the values. On the technique in general: Alpha assays give light when donor and acceptor beads are brought close together.

The target in assay [2] is T1, Bromodomain-containing protein 4. Nature of the assay: Inhibition of human BRD4-BD1 (49 to 170 residues) expressed in Escherichia coli BL21(DE3) using N-C:SGRG-K(Ac)-GG-K(Ac)-GLG-K(Ac)-GGA-K(Ac)-RHRKVGG-K(biotin) as substrate preincubated for 15 mins followed by substrate addition measured after 5 mins by AlphaScreen assay.

For `O=c1oc2ccccc2c2ncn(CCCN3CCOCC3)c12`, the inhibition in assay [1] came out at 40.7%. Regarding `CCN1C(=O)c2cccc3c(S(=O)(=O)Nc4ccccc4C)ccc1c23`, in assay [2], the pIC50 is 5.01.

In assay [1], `O=C(NCCNc1cc(=O)oc2ccccc12)c1ccc2ccccc2n1` gave an inhibition of 12.8%. Compound `c1coc(-c2nnc(-c3ccc4ccccc4c3)c3nocc23)c1` showed a negative-log IC50 (pIC50) in assay [2] of 4.88. The same measure, in the same setting: with `Cc1ccn(-c2ccc(NCCNC(=O)c3ccc(Br)o3)nn2)n1` the figure was 4.67.

`O=C(NCCNc1ccc(-n2cccn2)nn1)c1ccccc1` gave a negative logarithm of the IC50 (pIC50) in assay [2] of 4.86.

`CN(CCCNc1cc(=O)oc2ccccc12)C(=O)c1cccc(F)c1` showed a negative logarithm of the IC50 (pIC50) in assay [2] of 5.09. The inhibition in assay [1] came to 97.3%. `CN(CCCNc1cc(=O)oc2ccccc12)C(=O)C(C)(C)C` showed a pIC50 in assay [2] of 5.34. The compound further yielded an inhibition in assay [1] of 96.2%. The like results for `CN(CCCNc1cc(=O)oc2ccccc12)C(=O)c1ccco1` were, in that order, 5.69 and 98%. Turning to `CCOC(=O)c1ncccc1NC(=O)CC(=O)Nc1cccnc1C(=O)OCC`, the negative-log IC50 (pIC50) in assay [2] was 5.54. In turn, `COC(=O)C(O)(c1cc(C)c2cccnc2c1O)C(F)(F)F` (configuration not stated) had a negative-log IC50 (pIC50) in assay [2] of 5.68.

`COc1ccc(C2=NN(C(=O)CCCC(=O)O)C(c3cn(-c4ccccc4)nc3-c3ccccc3)C2)cc1` (configuration not stated) had a pIC50 in assay [2] of 5.27. Consider `CN(CCCNc1cc(=O)oc2ccccc12)S(=O)(=O)c1ccccc1`, for which, in assay [1], the inhibition worked out at 28.6%. `O=C(Nc1cccc(S(=O)(=O)N2CCCC2)c1)c1nc[nH]n1` had a pIC50 in assay [2] of 4.37. On the same count and under the same terms, the same measure for `Cc1[nH]n(-c2nc(O)c(Cc3ccccc3)c(=O)[nH]2)c(=O)c1CCO`: 5.51. Same read-out and setting: the same measure for `CC(=O)N(C)c1ccc(NC(=O)COc2ccc(Br)cc2Cl)cc1`: 4.29; for `Cc1ccc(-[n+]2c3ccccc3nc3ccc(N4CCOCC4)cc32)cc1`: 4.96. The compound `COc1cccc2cc(C(=O)N(C)C)c(=O)oc12` came in with an inhibition in assay [1] of 38.5%. `COc1ccccc1NC(=O)CCSc1cccc2cccnc12` had a pIC50 in assay [2] of 4.73. With `O=c1cc(NC2CCN(CCCc3ccccc3)CC2)c2ccc(Cl)cc2o1`, the inhibition in assay [1] is 22.1%.

In assay [2], `Cc1ccc(C)c(NC(=O)CC(c2ccccc2)c2ccccc2)c1` showed a pIC50 of 4.29.

In the case of `O=C(NCCNc1cc(=O)oc2ccccc12)c1cccs1`, in assay [1], the inhibition was determined as 72%. `O=C(NCCNc1ccc(-n2cccn2)nn1)c1ccccc1Cl` showed a negative-log IC50 (pIC50) in assay [2] of 4.95. For `O=C(Nc1ccc(Cl)cn1)c1c(F)c(F)c(F)c(F)c1F`, the negative-log IC50 (pIC50) in assay [2] is 4.49. Same read-out and setting: with `O=C(c1ccccc1)c1ccc(NS(=O)(=O)c2cccc(Br)c2)cc1` the figure was 4.41. In turn, `O=c1cc(NCCCN2CCN(Cc3ccccc3)CC2)c2ccccc2o1` showed an inhibition in assay [1] of 52.3%.

`O=C(NCc1n[nH]c(=O)c2ccccc12)c1cccc(Cl)c1`: the pIC50 in assay [2] is 4.33.

Compound `CN(C)CCCNCCCNc1cc(=O)oc2ccccc12` yielded an inhibition in assay [1] of 37.2%. In assay [1], `O=C(NCCCNC(=O)c1cccs1)c1nc2ccccc2c(=O)[nH]1` gave an inhibition of 71.5%.

In the case of `CN(CCCNc1cc(=O)oc2ccccc12)C(=O)c1cccc(Cl)c1`, the negative-log IC50 (pIC50) in assay [2] was 5.44. Also, the inhibition in assay [1] was determined as 97.1%.

Take `CCN1C(=O)c2cccc3c(S(=O)(=O)N4CCCC4)ccc1c23`: in assay [2], the pIC50 was 5.72. Same read-out and setting: the same measure for `O=c1[nH]n(CC2COC3(CCCCC3)O2)c(=O)c2ccccc12` (configuration not stated): 4.88. Same read-out and setting: with `CCCNS(=O)(=O)c1ccc2c3c(cccc13)C(=O)N2C` the figure was 5.02. Still for that read-out and setting: with `CC(=O)CC(c1ccccc1)c1c(O)c2ncccc2oc1=O` (configuration not stated) the figure was 5.55.

Compound `O=C(CNc1cc(=O)oc2ccccc12)OCC(=O)c1ccc(Br)cc1` showed a negative-log IC50 (pIC50) in assay [2] of 5.98. For the same compound, the inhibition in assay [1] was 97.4%. Consider `COc1ccc(/C=C(\NC(=O)c2ccc(C)cc2)C(=O)NCCCn2ccnc2)cc1`, for which, in assay [2], the pIC50 was 4.96. Same read-out and setting: with `CCCn1nnc(NC(=O)COc2ccc(Cl)cc2C)n1` the figure was 4.64. The compound `O=C(NCCNc1cc(=O)oc2ccccc12)c1ccco1` gave an inhibition in assay [1] of 43.6%.

In the case of `CC1(C)CON(Cc2ccc(N3C(=O)c4cccnc4C3=O)cc2Cl)C1=O`, the negative-log IC50 (pIC50) in assay [2] is 4.90.

In assay [1], `CN1CCN(CCCNc2c(N)c(=O)oc3ccccc23)CC1` had an inhibition of 24.5%. In assay [2], `CCCNS(=O)(=O)c1ccc2c3c(cccc13)C(=O)N2CC` showed a pIC50 of 5.58. Regarding `O=c1cc(NCCCn2ccnc2)c2ccccc2o1`, in assay [1], the inhibition is 58.5%. In assay [1], `CN(CCCNC(=O)c1nc2ccccc2c(=O)[nH]1)C(=O)c1cccs1` gave an inhibition of 56.5%. Turning to `O=C(CN1CC(=O)Oc2ccccc21)OCC(=O)c1ccc(Br)cc1`, the negative-log IC50 (pIC50) in assay [2] is 5.95. `O=c1oc2ccccc2c(NCCCN2CCOCC2)c1[N+](=O)[O-]` displayed an inhibition in assay [1] of 42.8%. Still for that read-out and setting: with `COc1ccc(C(=O)N(C)CCCNc2cc(=O)oc3ccccc23)cc1` the figure was 48.9%. Regarding `O=C(NCCCNc1cc(=O)oc2ccccc12)c1cccnc1`, the inhibition in assay [1] stood at 30.2%. In the case of `CCc1nnc(NC(=O)C2(C)COC(c3ccccc3)OC2)s1` (configuration not stated), in assay [2], the negative logarithm of the IC50 (pIC50) is 4.16. For `N#Cc1c(-c2ccc(Cl)cc2)cc(-c2cccs2)nc1SCC(=O)NCC(=O)O`, the negative logarithm of the IC50 (pIC50) in assay [2] is 6.05. Still for that read-out and setting: with `CC(=O)C(C(C)=O)C(c1ccc(Cl)cc1)c1ccc(Cl)cc1` the figure was 4.56. As for `O=c1cc(NCCCN2CCOCC2)c2ccccc2o1`, the inhibition in assay [1] stood at 59.9%. On the same count and under the same terms, the same measure for `O=c1oc2ccccc2c(NC2CCN(Cc3ccccc3)CC2)c1[N+](=O)[O-]`: 58.5%.
